Data reported in patent publication US20220000117A1, “METHOD FOR CONTROLLING DISEASES IN SMALL GRAIN CEREALS, SEED OF SMALL GRAIN CEREALS, AND METHOD FOR SUPPRESSING LODGING DAMAGE IN SMALL GRAIN CEREALS” (KUMIAI CHEMICAL INDUSTRY CO., LTD., priority 2019, published 2022).

Assays:
septoria leaf blotch [1] = experiment: Test Example 10: control test of septoria leaf blotch of wheat, cup in greenhouse, inoculated, variety ARKEOS (Tables 15 to 19); type: in vivo, Septoria tritici
Outline: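 ARKEOS wheat seed treated with compound suspension per 1 kg seed, air-dried, sown 5 per cup in greenhouse; comparative treatments sprayed on seedlings at 1000 L/ha on day 14. Conidiospores sprayed day 14; second-leaf lesion area scored ~35 days after seeding, expressed as degree of disease occurrence.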

powdery mildew [2] = experiment: Test Example 4: control test of wheat powdery mildew, cup in greenhouse, inoculated; type: in vivo, Blumeria graminis; conditions: for Degree of Disease Occurrence: 22 days after seeding
Protocol: (§1) Degree of Disease Occurrence=Σ(Index×Number of Leaves of Index)/(4×Number of Investigated Leaves)×100 (1)
Seed having a mass of 1 kg of wheat (variety: Norin No. 61) was mixed into 100 ml of suspension water containing 0.5 g of the above compound (6) or compound (3) (synthesis was performed in accordance with a known method, formulated 10% wettable powder was used) and air-dried, and then, 12 seeds were sown in a plastic cup having a diameter of 6 cm containing river sand and managed in a greenhouse. The number of emerged seeds was investigated nine days after seeding, and an emergence rate was calculated (Examples 10 and 11). In Comparative Example 11 and Comparative Example 12, 20 ml of suspension water of an active ingredient, which had been adjusted to have a concentration shown in Table 5, was sprayed in a frame of 45 cm×45 cm in which a pot of wheat seedlings was placed (corresponding to 1000 L/ha) 15 days after seeding. On day 15 after seeding, conidiospores of powdery mildew were sifted over leaves of wheat seedlings and inoculated onto the leaves (after the sprayed liquid was dried in the case of Comparative Examples), a lesion area ratio of powdery mildew in a first leaf was investigated 22 days after seeding according to the criteria in Table 1, and the degree of disease occurrence was calculated by the above calculation formula (1).

wheat (variety: Apache) = experiment: Test Example 8: emergence rate of wheat seed; type: in vivo
Protocol: (§2) Seed having a mass of 1 kg of wheat (variety: Apache) was mixed into 100 ml of suspension water containing from 0.5 g or 5 g of the 3,4-dichloroisothiazole derivative of the compound (6) or (3) (synthesis was performed in accordance with a known method, formulated 10% wettable powder was used) and air-dried, and then, 12 seeds were sown in a plastic cup having a diameter of 6 cm containing river sand and managed in a greenhouse. The number of emerged seeds was investigated 12 days after seeding, and an emergence rate was calculated. In Comparative Examples 19 to 22, 20 ml of suspension water of an active ingredient, which had been adjusted to have a concentration shown in Table 9, was sprayed in a frame of 45 cm×45 cm in which a pot of wheat seedlings was placed (corresponding to 1000 L/ha) 12 days after seeding. A spore suspension in which conidiospores of septoria leaf blotch are suspended were sprayed and inoculated on leaves of wheat seedlings 12 days after seeding (after the sprayed liquid was dried in the case of Comparative Examples), a lesion area ratio of septoria leaf blotch in a second leaf was investigated 31 days after seeding according to the criteria in Table 1, and the degree of disease occurrence was calculated by the above calculation formula (1).

septoria leaf blotch [3] = experiment: Test Example 8: control test of septoria leaf blotch of wheat, cup in greenhouse, inoculated, wheat variety Apache; type: in vivo, Septoria tritici; parameters: key to Degree of Disease Occurrence: Σ(index×leaves of index)/(4×investigated leaves)×100; 0–100 scale; conditions: for Degree of Disease Occurrence: 31 days after seeding
Protocol: as §1, §2

powdery mildew [4] = experiment: Test Example 9: control test of wheat powdery mildew, cup in greenhouse, inoculated, Norin No. 61 (Tables 10 to 14); type: in vivo, Blumeria graminis; parameters: key to Degree of Disease Occurrence: Σ(index×leaves)/(4×leaves investigated)×100; 0 = no disease, 100 = max
Outline: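 Norin No. 61 wheat seed was treated with compound suspension (DMSO solution or 10% wettable powder), air-dried and grown in river sand in a greenhouse; comparators were sprayed at 1000 L/ha on day 14. Conidia were dusted on at day 14, and first-leaf lesion area was scored at day 21 as degree of disease occurrence.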

[5] = Table 15, Foliage Treatment, spray 50 ppm (50 g/ha) day 14, second leaf, approximately 35 days after seeding
[6] = Table 15, Foliage Treatment, spray 500 ppm (500 g/ha) day 14, second leaf, approximately 35 days after seeding
[7] = Table 15, Seed Treatment 0.5 g/Seed 1 kg (50 g/ha), second leaf, approximately 35 days after seeding
[8] = Table 15, Seed Treatment 5 g/Seed 1 kg (500 g/ha), second leaf, approximately 35 days after seeding
[9] = Table 16, Foliage Treatment, spray 10 ppm suspension water (corresponding to 10 g/ha) 14 days after seeding, untreated 57.1
[10] = Table 16, Foliage Treatment, spray 10 ppm suspension water (corresponding to 10 g/ha) 14 days after seeding, untreated 93.3
[11] = Table 16, Foliage Treatment, spray 500 ppm suspension water (corresponding to 500 g/ha) 14 days after seeding, untreated 57.1
[12] = Table 16, Foliage Treatment, spray 500 ppm suspension water (corresponding to 500 g/ha) 14 days after seeding, untreated 93.3
[13] = Table 16, Seed Treatment, 0.1 g/Seed 1 kg (corresponding to 10 g/ha), untreated 57.1
[14] = Table 16, Seed Treatment, 0.1 g/Seed 1 kg (corresponding to 10 g/ha), untreated 93.3
[15] = Table 16, Seed Treatment, 5 g/Seed 1 kg (corresponding to 500 g/ha), untreated 57.1
[16] = Table 16, Seed Treatment, 5 g/Seed 1 kg (corresponding to 500 g/ha), untreated 93.3
[17] = Foliage Spray 50 ppm suspension water (50 g/ha) day 15, first leaf
[18] = Seed Treatment 0.5 g/Seed 1 kg (50 g/ha), inoculated day 15, first leaf
[19] = Foliage Treatment group, spray 50 ppm (50 g/ha) 12 days after seeding, emergence counted 12 days after seeding
[20] = Foliage Treatment group, spray 500 ppm (500 g/ha) 12 days after seeding, emergence counted 12 days after seeding
[21] = Seed Treatment 0.5 g/Seed 1 kg, 12 days after seeding
[22] = Seed Treatment 5 g/Seed 1 kg (500 g/ha), 12 days after seeding
[23] = Foliage Treatment, spray 50 ppm suspension water (50 g/ha) day 12, second leaf
[24] = Foliage Treatment, spray 500 ppm suspension water (500 g/ha) day 12, second leaf
[25] = Seed Treatment 0.5 g/Seed 1 kg, inoculated day 12, second leaf
[26] = Seed Treatment 5 g/Seed 1 kg (500 g/ha), inoculated day 12, second leaf
[27] = Table 10 run, Foliage Treatment, spray 5 ppm (5 g/ha) day 14, first leaf, 21 days after seeding
[28] = Table 10 run, Foliage Treatment, spray 50 ppm (50 g/ha) day 14, first leaf, 21 days after seeding
[29] = Table 10 run, Seed Treatment 0.05 g/Seed 1 kg (5 g/ha), first leaf, 21 days after seeding
[30] = Table 10 run, Seed Treatment 0.5 g/Seed 1 kg (50 g/ha), first leaf, 21 days after seeding
[31] = Table 11 run (different day), Foliage Treatment, spray 5 ppm (5 g/ha)
[32] = Table 11 run (different day), Foliage Treatment, spray 50 ppm (50 g/ha)
[33] = Table 11 run (different day), Seed Treatment 0.05 g/Seed 1 kg (5 g/ha)
[34] = Table 11 run (different day), Seed Treatment 0.5 g/Seed 1 kg (50 g/ha)
[35] = Table 12 run (different day), Foliage Treatment, spray 50 ppm (50 g/ha)
[36] = Table 12 run (different day), Seed Treatment 0.5 g/Seed 1 kg (50 g/ha)

Structure (SMILES)	Degree of Disease Occurrence (septoria leaf blotch [1]; [5])	Disease Leaf Rate (%) (septoria leaf blotch [1]; [5])	Degree of Disease Occurrence (septoria leaf blotch [1]; [6])	Disease Leaf Rate (%) (septoria leaf blotch [1]; [6])	Degree of Disease Occurrence (septoria leaf blotch [1]; [7])	Disease Leaf Rate (%) (septoria leaf blotch [1]; [7])	Degree of Disease Occurrence (septoria leaf blotch [1]; [8])	Disease Leaf Rate (%) (septoria leaf blotch [1]; [8])	Degree of Disease Occurrence (septoria leaf blotch [1]; [9])	Disease Leaf Rate (%) (septoria leaf blotch [1]; [10])	Degree of Disease Occurrence (septoria leaf blotch [1]; [11])	Disease Leaf Rate (%) (septoria leaf blotch [1]; [12])	Degree of Disease Occurrence (septoria leaf blotch [1]; [13])	Disease Leaf Rate (%) (septoria leaf blotch [1]; [14])	Degree of Disease Occurrence (septoria leaf blotch [1]; [15])	Disease Leaf Rate (%) (septoria leaf blotch [1]; [16])	Degree of Disease Occurrence (powdery mildew [2]; [17])	Degree of Disease Occurrence (powdery mildew [2]; [18])	disease occurrence of powdery mildew, seed treatment compared with spraying on foliage during a growing period (powdery mildew [2])	Emergence Rate (%) (wheat (variety: Apache); [19])	also measured
OCc1snc(Cl)c1Cl [Compound (3)]	29.3	97.0%	37.5	91.7%	22.2	77.8%	8.2	32.8%	62.5	100.0%	77.4	100.0%	40.6	96.9%	40.4	85.7%	62.1	17.0	suppressed lower	97.2%	Emergence Rate (%) (wheat (variety: Apache); [20]): 97.2%; Emergence Rate (%) (wheat (variety: Apache); [21]): 97.2%; Emergence Rate (%) (wheat (variety: Apache); [22]): 86.1%; Degree of Disease Occurrence (septoria leaf blotch [3]; [23]): 29.3; Degree of Disease Occurrence (septoria leaf blotch [3]; [24]): 37.5; Degree of Disease Occurrence (septoria leaf blotch [3]; [25]): 22.2; Degree of Disease Occurrence (septoria leaf blotch [3]; [26]): 8.2; disease occurrence of septoria leaf blotch, seed treatment compared with spraying on foliage during a growing period (septoria leaf blotch [3]): suppressed lower; Degree of Disease Occurrence (powdery mildew [4]; [27]): 63.5; Disease Leaf Rate (%) (powdery mildew [4]; [27]): 100.0%; Degree of Disease Occurrence (powdery mildew [4]; [28]): 56.3; Disease Leaf Rate (%) (powdery mildew [4]; [28]): 100.0%; Degree of Disease Occurrence (powdery mildew [4]; [29]): 45.2; Disease Leaf Rate (%) (powdery mildew [4]; [29]): 100.0%; Degree of Disease Occurrence (powdery mildew [4]; [30]): 14.8; Disease Leaf Rate (%) (powdery mildew [4]; [30]): 59.4%
O=C(O)c1snc(Cl)c1Cl [Compound (6)]	29.5	88.9%	48.5	100.0%	16.1	58.8%	4.2	16.9%	53.3	100.0%	86.2	95.2%	34.7	84.4%	41.3	95.0%	22.2	16.3	suppressed lower	97.2%	Emergence Rate (%) (wheat (variety: Apache); [20]): 94.4%; Emergence Rate (%) (wheat (variety: Apache); [21]): 88.9%; Emergence Rate (%) (wheat (variety: Apache); [22]): 88.9%; Degree of Disease Occurrence (septoria leaf blotch [3]; [23]): 29.5; Degree of Disease Occurrence (septoria leaf blotch [3]; [24]): 48.5; Degree of Disease Occurrence (septoria leaf blotch [3]; [25]): 16.1; Degree of Disease Occurrence (septoria leaf blotch [3]; [26]): 4.2; disease occurrence of septoria leaf blotch, seed treatment compared with spraying on foliage during a growing period (septoria leaf blotch [3]): suppressed lower; Degree of Disease Occurrence (powdery mildew [4]; [27]): 56.3; Disease Leaf Rate (%) (powdery mildew [4]; [27]): 100.0%; Degree of Disease Occurrence (powdery mildew [4]; [28]): 40.6; Disease Leaf Rate (%) (powdery mildew [4]; [28]): 87.5%; Degree of Disease Occurrence (powdery mildew [4]; [29]): 48.5; Disease Leaf Rate (%) (powdery mildew [4]; [29]): 93.8%; Degree of Disease Occurrence (powdery mildew [4]; [30]): 28.1; Disease Leaf Rate (%) (powdery mildew [4]; [30]): 87.1%
O=S1(=O)N=C(OCc2snc(Cl)c2Cl)c2ccccc21 [Compound (1), Dichlobentiazox]											71.9	100.0%			45.7	95.8%					Degree of Disease Occurrence (powdery mildew [4]; [31]): 95.3; Disease Leaf Rate (%) (powdery mildew [4]; [31]): 100%; Degree of Disease Occurrence (powdery mildew [4]; [32]): 89.1; Disease Leaf Rate (%) (powdery mildew [4]; [32]): 100%; Degree of Disease Occurrence (powdery mildew [4]; [33]): 56.4; Disease Leaf Rate (%) (powdery mildew [4]; [33]): 93.8%; Degree of Disease Occurrence (powdery mildew [4]; [34]): 22.7; Disease Leaf Rate (%) (powdery mildew [4]; [34]): 71.9%; Degree of Disease Occurrence (powdery mildew [4]; [35]): 21.7; Disease Leaf Rate (%) (powdery mildew [4]; [35]): 46.7%; Degree of Disease Occurrence (powdery mildew [4]; [36]): 0.0; Disease Leaf Rate (%) (powdery mildew [4]; [36]): 0.0%
